# Measured values published in patent US9428536B2, “Immunostimulatory G, U-containing oligoribonucleotides” (Zoetis Belgium SA, priority 2002, dated 2016).
# Tests used:
# [1] = tested on: human PBMC; assay: Human PBMC IL-12 p40 secretion, ELISA; format: cell-based
# Protocol: Human peripheral blood mononuclear cells (PBMCs) were isolated from healthy donors, plated at 3×10^5 cells/well, stimulated in vitro with various test and control immunostimulatory agents for 16 hours, and then analyzed by enzyme-linked immunosorbent assay (ELISA) using matched antibody pairs from BD-Pharmingen for secreted cytokines IL-12 p40 and TNF-α, performed according to the manufacturer's protocol. Also included were certain negative controls, including medium alone and DOTAP (10 μg/200 μl culture well; “Liposomes”) alone. The control immunostimulatory agents included the imidazoquinolone R-848 (2 μg/ml), lipopolysaccharide (LPS; 1 μg/ml), Pam3Cys (5 μg/ml), poly IC (50 μg/ml), and CpG DNA (50 μg/ml). These are reported ligands for TLR7, TLR4, TLR2, TLR3, and TLR9, respectively. Test immunostimulatory agents included the following RNA molecules, each at 50 μg/ml, with and without DOTAP (10 μg total “with Liposomes” and “without Liposomes”, respectively): GUGUUUAC alone; GUAGGCAC alone; GUGUUUAC in combination with GUAGGCAC; GUAGGA; GAAGGCAC; CUAGGCAC; CUCGGCAC; and CCCCCCCC. These RNA oligonucleotides each contained a phosphorothioate linkage between the penultimate and 3′ terminal nucleoside.
# The experiments described in the preceding example were repeated with varied concentrations of RNA oligonucleotides in order to assess the dose-response behavior of human PBMCs to G,U-containing RNA oligonucleotides of the invention. A total of 10, 3 or 1 μg RNA was added to 10 μg DOTAP and then added to the 200 μl culture wells. After 16 hours IL-12 p40 and TNF-α ELISAs were performed as described in Example 1. […]
# RNA oligomers GUGUGUGU, GUGUGUG, GUGUGU, GUGUG, GUGU, GUG, and GU, with and without DOTAP, were added over a range of concentrations to overnight cultures of human PBMC. Culture supernatants were harvested, and human TNF-α, IL-12 p40, and IFN-α were measured by ELISA using matched antibody pairs from BD-Pharmingen according to the manufacturer's protocol. […]
# [2] = tested on: wild type murine macrophages; assay: Wild type murine macrophages in the presence of IFN-γ, IL-12 p40 ELISA; format: cell-based, mouse; details: FIG. 6 Panel A, 12 hours, RNA with DOTAP
# Protocol: The following murine cells were isolated and incubated with various RNAs and other known TLR ligands in order to assess species-, cell type-, and signaling pathway-specificity: wild type macrophages in the presence of IFN-γ; MyD88-deficient macrophages in the presence of IFN-γ; J774 (mouse macrophage cell line); and RAW 264.7 (mouse macrophage cell line, e.g., ATCC TIB-71). Murine bone macrophages were generated from wild type or MyD88-deficient C57BL/6 mice by culturing bone marrow cells with 50 ng/ml M-CSF for 5 days. Cells were seeded at 25,000 cells/well and treated with 20 ng/ml IFN-γ for 16 hours. The murine macrophage cell lines RAW and J774 were seeded at 10,000 cells/well.
# The following test and control agents were examined: R-848 (2 μg/ml), ODN 1668 (CpG DNA; 5′-[…]-3′; SEQ ID NO:7); LPS (1 μg/ml); poly IC (50 μg/ml); Pam3Cys (5 μg/ml); Ionomycin/TPA; the following RNA molecules, each with (“+Lipo”) and without DOTAP (10 μg/200 μl culture well): GUGUUUAC alone (RNA1); GUAGGCAC alone (RNA2); GUGUUUAC in combination with GUAGGCAC (RNA1/2); […] (RNA6; SEQ ID NO:8); […] (RNA9; SEQ ID NO:9); and the following DNA molecules, corresponding to RNA1, RNA2, and RNA1/2: GTGTTTAC alone (DNA1); GTAGGCAC alone (DNA2); and GTGTTTAC in combination with GTAGGCAC (DNA1/2). These RNA and DNA oligonucleotides each contained a phosphorothioate linkage between the penultimate and 3′ terminal nucleoside. RNA6 and RNA9 each contained in addition a phosphorothioate linkage between the penultimate and 5′ terminal nucleoside. RNA6 corresponds to a ribosomal RNA stem loop derived from Listeria monocytogenes. RNA9 corresponds to a stem loop derived from human immunodeficiency virus (HIV, an RNA retrovirus). The cells were cultured for 12 hours and supernatants were harvested. Murine IL-12 p40, IL-6, and TNF-α were measured by ELISA using matched antibody pairs from BD-Pharmingen according to the manufacturer's protocol.
compound,measurement,setting,value
"CCOCc1nc2c(N)nc3ccccc3c2n1CC(C)(C)O [R-848, 4-amino-α,α-dimethyl-2-ethoxymethyl-1H-imidazo[4,5-c]quinoline-1-ethanol, reference compound]",IL-12 p40 response of human PBMC (in words),"[1]; Example 1, FIG. 1, 16 hours, RNA 50 μg/ml with and without DOTAP, R-848 2 μg/ml, LPS 1 μg/ml, Pam3Cys 5 μg/ml, poly IC 50 μg/ml",responsive
same,effect of DOTAP on the amount of IL-12 p40 secreted,"[1]; Example 4, FIG. 5, presence versus absence of DOTAP, 16 hour incubation",about the same immunostimultory effect
same,IL-12 p40 secretion by wild type murine macrophages,[2],significant amounts
